The source of these data is patent US9260754B2, “Connexin mutation detection for lymphatic variation and disease” (University of Pittsburgh—Of the Commonwealth System of …, priority 2010, dated 2016).

Where no end group is shown, it is not given here.

The test system of the experiment is hTERTs (telomerase-transfected human dermal lymphatic endothelial cells). The experiment is described as follows: Intercellular communication assay (parachute Calcein AM dye transfer) with gap junction inhibitors. It is filed as cell-based. To be noted: GRA 10 μM, Gap 27 500 μM, 40 min, versus control, p<0.05. The procedure: To characterize intercellular gap junction communication over time between seeded donor cells and an acceptor monolayer, LECs were loaded with 2.5 μM Calcein-AM (Invitrogen) in (PBS) for 30 min at 37° C. Excessive dye was removed by rinsing three times in PBS before dislodgment using 500 μl 0.25% Trypsin-EDTA. Detached cells were dispersed with a pipette and 10 μl cell suspensions was added to a confluent LEC monolayer in MCDB-131 supplemented with 25 mM HEPES. To ensure attachment of dye loaded suspended cells, the dish was incubated at 37° C. for 40 min prior to syringe filtration of the medium to remove floating cells that would interfere with subsequent imaging. The dish was thereafter mounted in a temperature controlled open chamber microincubator (Harvard Apparatus) on an inverted Olympus IX81 microscope. […] The Gap27 was handled similarly to GRA and a DMSO control was measured on the same day. Significance was assigned at p<0.05 and treatments were analyzed as independent samples using a Student's t-test. […]
Calcein AM allows cell permeable loading, and with a molecular weight of 662, is frequently used in gap junction communication studies. […] Replicate blinded experiments were performed on at least 2 separate days, and quantitation of dye spread was determined in an automated manner using Metamorph and standardized regions of interest with auto-thresholding. […]

Regarding “SRPTEKTIFII [Gap 27, Synthetic connexin-mimetic peptide targeted to extracellular loop 2 of Cx43]”, the “GJIC by dye transfer in response to gap junction inhibitors” value is on record as “significantly reduced”. For the compound `CC1(C)[C@@H](O)CC[C@]2(C)[C@H]3C(=O)C=C4[C@@H]5C[C@@](C)(C(=O)O)CC[C@]5(C)CC[C@@]4(C)[C@]3(C)CC[C@@H]12` [GRA, 18α-glycyrrhetinic acid], the “GJIC by dye transfer in response to gap junction inhibitors” value is “significantly reduced”.
